Measured values reported in patent US20190246647A1, “COMPOSITIONS AND RELATED METHODS FOR MODULATING ENDOSYMBIONTS” (Flagship Pioneering Innovations V, Inc., priority 2017, published 2019).
{Cy3} = Cy3 dye attached by azide-DBCO click chemistry

Tested on: Myzus persicae
Test: Cy3-PNA in artificial diet: aphid survival
Format: in vivo
Conditions: 0.5 to 10 mg/L in artificial diet; paper example
Method: Cy3-PNA solutions are formulated with 0, 0.5, 1, 5 or 10 mg/L of Cy3-PNA from Example 11 in 10 mL of 0.5% sucrose and essential amino acids.
To prepare for the treatment, aphids are grown in a lab environment and medium. In a climate-controlled room (16 h light photoperiod; 60±5% RH; 20±2° C.), plants are grown in a mixture of vermiculite and perlite and are infested with aphids. To limit maternal effects or health differences between plants, 5-10 adults from different plants are distributed among 10 two-week-old plants, and allowed to multiply to high density for 5-7 days. For experiments, second and third instar aphids are collected from healthy plants and divided into treatments so that each treatment receives approximately the same number of individuals from each of the collection plants.
Wells of a 96-well plate are filled with 200 μl of artificial aphid diet (Febvay et al., Canadian Journal of Zoology 66(11):2449-2453, 1988) and the plate is covered with parafilm to make a feeding sachet. Artificial diet is either mixed with the solution of sterile water with 0.5% sucrose and essential amino acids only as a negative control, or mixed with Cy3-PNA solutions. Cy3-PNA solutions are mixed with artificial diet to obtain final concentrations between 0.5 to 10 mg/L. […]

For “Cy3-gaatgcagctgc (antisense GAATGCAGCTGC; all peptide nucleic acid (PNA), 5' {Cy3}) [Bcr1 specific Cy3-PNA, antisense PNA against Bcr1 joined to Cy3 dye through click chemistry]”, the “survival rate of aphids vs control” value was “decreased”.
